# Assays:
# ABUTH [1] = experiment: Pre-emergence action against ABUTH, 1280 g/ha; assay type: in vivo, Abutilon theophrasti; conditions: scored visually after about 3 weeks vs untreated controls (100% = plants have died)
# Method in brief: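 Greenhouse pre-emergence test on sown seeds in sandy loam; soil-surface spray of formulated compound with 0.5% additive at 600 L/ha water. Scored visually, % vs untreated, after about 3 weeks.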
# LOLRI [2] = experiment: Pre-emergence action at 320 g/ha against LOLRI; assay type: in vivo, Lolium rigidum; conditions: visual scoring after about 3 weeks vs untreated controls; for pest or weed control at 320 g/ha: Lolium rigidum, 504 h
# Method in brief: (§1)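 Visual % scoring at about 3 weeks post-treatment against untreated pots (0% = like control, 100% = dead), greenhouse-grown. Compounds applied at 320 g/ha as aqueous WP/EC suspension or emulsion plus 0.5% additive, 600 l/ha water, onto covering soil of freshly sown pots before emergence.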
# MATIN [3] = experiment: Pre-emergence action at 320 g/ha against MATIN; assay type: in vivo, Tripleurospermum inodorum (Matricaria inodora); conditions: visual scoring after about 3 weeks vs untreated controls; for pest or weed control at 320 g/ha: Tripleurospermum inodorum, 504 h
# Method in brief: as §1
# VERPE [4] = experiment: Pre-emergence action at 320 g/ha against VERPE; assay type: in vivo, Veronica persica; conditions: visual scoring after about 3 weeks vs untreated controls; for pest or weed control at 320 g/ha: Veronica persica, 504 h
# Method in brief: as §1
# VIOTR = experiment: Pre-emergence action at 320 g/ha against VIOTR; assay type: in vivo, Viola tricolor; conditions: dosage 320 g/ha; for pest or weed control at 320 g/ha: Viola tricolor, 504 h
# Method in brief: as §1
# LOLRI [5] = experiment: Post-emergence action against LOLRI, 1.28 kg/ha; assay type: in vivo, Lolium rigidum; conditions: dosage 1280 g/ha, visual rating about 3 weeks after treatment vs untreated controls
# Method in brief: (§2)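 Herbicidal action is estimated by eye after about three weeks under optimum greenhouse conditions, on a 0–100% scale against untreated plants. Compounds are applied post-emergence to one-leaf-stage weeds as aqueous WP or EC preparations containing 0.5% additive, sprayed at 600 L/ha.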
# ABUTH [6] = experiment: Post-emergence action against ABUTH, 1.28 kg/ha; assay type: in vivo, Abutilon theophrasti; conditions: dosage 1280 g/ha, visual rating about 3 weeks after treatment vs untreated controls (100% = plants died)
# Method in brief: as §2
# MATIN [7] = experiment: Post-emergence action against MATIN, 1.28 kg/ha; assay type: in vivo, Tripleurospermum inodorum (Matricaria inodora); conditions: dosage 1280 g/ha, visual rating about 3 weeks after treatment vs untreated controls (100% = plants died)
# Method in brief: as §2
# VERPE [8] = experiment: Post-emergence action against VERPE, 1.28 kg/ha; assay type: in vivo, Veronica persica; conditions: dosage 1280 g/ha, visual rating about 3 weeks after treatment vs untreated controls (100% = plants died)
# Method in brief: as §2
# AMARE = experiment: Post-emergence action at 320 g/ha against AMARE; assay type: in vivo, Amaranthus retroflexus; conditions: visual rating about 3 weeks after treatment vs untreated controls; for pest or weed control at 320 g/ha: Amaranthus retroflexus, 504 h
# Method in brief: (§3)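 Visual % activity vs untreated controls (0% = like control, 100% = plants dead), scored ~3 wk after treatment. Plants were grown in sandy loam in a greenhouse and sprayed on green parts at the one-leaf stage (2–3 wk post-sowing). Spray: WP or EC in water, 0.5% additive, 600 l/ha.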
# SETVI = experiment: Post-emergence action at 320 g/ha against SETVI; assay type: in vivo, Setaria viridis; conditions: visual rating about 3 weeks after treatment vs untreated controls
# Method in brief: as §3
# POLCO = experiment: Post-emergence action at 320 g/ha against POLCO; assay type: in vivo, Fallopia convolvulus (Polygonum convolvulus); conditions: visual rating about 3 weeks after treatment vs untreated controls; for pest or weed control at 320 g/ha: Fallopia convolvulus, 504 h
# Method in brief: as §3
# ECHGC = experiment: Pre-emergence action at 320 g/ha against ECHGC; assay type: in vivo, Echinochloa crus-galli; conditions: visual scoring after about 3 weeks vs untreated controls
# Method in brief: as §1
# ALOMY [9] = experiment: Post-emergence action against ALOMY, 1.28 kg/ha; assay type: in vivo, Alopecurus myosuroides; conditions: dosage 1280 g/ha, visual rating about 3 weeks after treatment vs untreated controls
# Method in brief: as §2
# DIGSA = experiment: Post-emergence action against DIGSA, 1.28 kg/ha; assay type: in vivo, Digitaria sanguinalis; conditions: dosage 1280 g/ha, visual rating about 3 weeks after treatment vs untreated controls
# Method in brief: as §2
# ALOMY [10] = experiment: Post-emergence action against ALOMY, 320 g/ha; assay type: in vivo, Alopecurus myosuroides; conditions: dosage 320 g/ha, visual rating about 3 weeks after treatment vs untreated controls (100% = plants died)
# Method in brief: as §3
Structure (SMILES),Pre-emergence action against ABUTH (ABUTH [1]) [%],Post-emergence action against LOLRI (LOLRI [5]) [%],Post-emergence action against ABUTH (ABUTH [6]) [%],Post-emergence action against MATIN (MATIN [7]) [%],Post-emergence action against SETVI in % (SETVI) [%],Pre-emergence action against ECHGC in % (ECHGC) [%],Post-emergence action against ALOMY (ALOMY [9]) [%],Post-emergence action against DIGSA (DIGSA) [%],Post-emergence action against ALOMY (ALOMY [10]) [%],Pre-emergence action against LOLRI in % (LOLRI [2]) [%],Pre-emergence action against MATIN in % (MATIN [3]) [%],Pre-emergence action against VERPE in % (VERPE [4]) [%],Pre-emergence action against VIOTR in % (VIOTR) [%],Post-emergence action against VERPE (VERPE [8]) [%],Post-emergence action against AMARE in % (AMARE) [%],Post-emergence action against POLCO in % (POLCO) [%],also measured
"COC(=O)COc1nn(-c2ccccc2F)c(-c2cncnc2)c1Br [VI-004, Methyl {[4-bromo-1-(2-fluorophenyl)-5-(pyrimidin-5-yl)-1H-pyrazol-3-yl]oxy}acetate]",90,100,90,100,80,–,–,–,–,–,–,–,–,–,–,–,"pest or weed control at 320 g/ha (LOLRI [2]): 90%; pest or weed control at 320 g/ha (MATIN [3]): 100%; pest or weed control at 320 g/ha (VERPE [4]): 100%; pest or weed control at 320 g/ha (VIOTR): 100%; pest or weed control at 1280 g/ha (VERPE [8]; Veronica persica, 504 h): 90%; pest or weed control at 320 g/ha (AMARE): 90%; pest or weed control at 320 g/ha (POLCO): 80%"
"COC(=O)[C@@H](C)Oc1nn(-c2ccccc2F)c(-c2cncnc2)c1Br [VI-011, Methyl (2R)-2-{[4-bromo-1-(2-fluorophenyl)-5-(pyrimidin-5-yl)-1H-pyrazol-3-yl]oxy}propanoate]",90,100,–,–,90,80,100,100,90,–,–,–,–,–,–,–,pest or weed control at 320 g/ha (LOLRI [2]): 100%; pest or weed control at 320 g/ha (MATIN [3]): 90%; pest or weed control at 320 g/ha (VERPE [4]): 90%; pest or weed control at 320 g/ha (VIOTR): 100%; pest or weed control at 320 g/ha (AMARE): 80%; pest or weed control at 320 g/ha (POLCO): 80%
CCOC(=O)COc1nn(-c2ccccc2F)c(-c2ccc(F)nc2)c1C(F)(F)F [VII-010],100,–,90,90,90,100,100,100,90,100,100,100,100,90,90,80,–
CCOC(=O)COc1nn(-c2ccccc2F)c(-c2cncc(F)c2)c1Br [VII-015],90,100,90,100,100,90,100,100,90,90,100,100,100,100,90,100,–
CCOC(=O)COc1nn(-c2ccc(F)cc2F)c(-c2ccc(F)nc2)c1Cl [VII-016],100,90,90,100,80,100,–,–,90,100,80,90,90,90,90,90,–
COC(=O)COc1nn(-c2ccccc2)c(-c2ccc(F)nc2)c1Br [VII-018],90,90,90,90,80,90,100,100,90,100,90,100,90,90,90,90,–
CCOC(=O)C(C)Oc1nn(-c2ccccc2F)c(-c2ccc(F)nc2)c1Br (centres unmarked) [VII-019],90,100,–,–,80,100,100,100,100,100,100,100,100,90,80,90,–
O=C(O)COc1nn(-c2ccccc2F)c(-c2cncc(F)c2)c1Br [VII-025],90,–,90,90,100,100,100,100,100,90,100,100,100,100,90,90,–
COC(=O)C(C)Oc1nn(-c2ccccc2)c(-c2ccc(F)nc2)c1Br (centres unmarked) [VII-026],90,–,90,90,90,–,100,100,100,80,90,80,100,100,90,90,–
COC(=O)COc1nn(-c2ccccc2F)c(-c2ccc(F)nc2)c1C(F)(F)F [VII-031],90,100,90,100,90,90,100,100,100,100,100,100,100,100,90,90,–
COC(=O)COc1nn(-c2ccccc2F)c(-c2cncc(F)c2)c1Br [VII-035],90,100,90,90,90,90,100,100,90,90,100,100,100,100,90,90,–
